Measurements: PMC6066988 (Frontiers in Microbiology, 2018)
Read-outs that look alike come from different tables or passages of the source.

Tests used:
[1] = biological target: T1, DNA topoisomerase I (MtbTopoI) (Mycobacterium tuberculosis, UniProt P9WG49); type: biochemical
T1 construct: gene topA

[2] = biological target: T1, DNA topoisomerase I (MtbTopoI); experiment: […]; also inhibits cleavage of a 32-mer single-stranded DNA; type: biochemical

T1 sequence (P9WG49 whole entry): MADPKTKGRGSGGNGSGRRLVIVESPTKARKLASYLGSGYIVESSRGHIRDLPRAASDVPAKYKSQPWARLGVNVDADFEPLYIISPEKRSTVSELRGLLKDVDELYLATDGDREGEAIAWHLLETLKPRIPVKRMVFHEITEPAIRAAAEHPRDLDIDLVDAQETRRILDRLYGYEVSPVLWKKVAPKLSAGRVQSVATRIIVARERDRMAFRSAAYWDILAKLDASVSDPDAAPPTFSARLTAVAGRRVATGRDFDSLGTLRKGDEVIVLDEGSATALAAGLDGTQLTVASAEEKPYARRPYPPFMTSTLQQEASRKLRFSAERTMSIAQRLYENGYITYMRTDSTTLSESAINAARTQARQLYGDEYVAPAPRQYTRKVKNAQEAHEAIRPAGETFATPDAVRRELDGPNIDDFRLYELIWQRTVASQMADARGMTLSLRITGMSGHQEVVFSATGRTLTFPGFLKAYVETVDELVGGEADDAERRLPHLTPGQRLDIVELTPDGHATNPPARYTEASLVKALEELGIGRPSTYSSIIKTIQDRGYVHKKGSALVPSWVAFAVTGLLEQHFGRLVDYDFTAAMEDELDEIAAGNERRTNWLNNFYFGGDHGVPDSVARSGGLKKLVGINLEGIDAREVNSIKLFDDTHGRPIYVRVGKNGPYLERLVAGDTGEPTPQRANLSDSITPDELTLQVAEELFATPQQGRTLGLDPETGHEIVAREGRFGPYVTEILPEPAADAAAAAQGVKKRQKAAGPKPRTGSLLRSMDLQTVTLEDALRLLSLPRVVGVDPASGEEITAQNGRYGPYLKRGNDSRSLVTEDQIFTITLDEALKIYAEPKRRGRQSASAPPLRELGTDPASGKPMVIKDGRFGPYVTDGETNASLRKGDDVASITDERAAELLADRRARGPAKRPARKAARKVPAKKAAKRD

For CN(C)CCc1cc2c(c3c1ccc1cc4c(cc13)OCO4)OCO2 [N-SCN, N-methyl-seconeolitsine], the IC50 [1] was 5.6 ± 0.8 µM.

With CNCCc1cc2c(c3c1ccc1cc4c(cc13)OCO4)OCO2 [SCN, seconeolitsine] the IC50 [2] was 8.4 ± 0.3 µM.
